Results on 25 compounds are retold here after US11236042B2, “Methylmenthol derivative and cool-sensation imparter composition containing same” (TAKASAGO INTERNATIONAL CORPORATION, priority 2017, dated 2022).

Each structure is given as a SMILES string.

The target of one data set is T1, human TRPM8 (Homo sapiens, UniProt Q7Z2W7).
T1 construct: The full-length human TRPM8 gene was amplified from plasmid RC220615 (manufactured by Origene) using a PCR method; host or cells: Flp-In T-REx 293 cells ('Flp-In293293 cells' [sic]), pcDNA5/FRT/TO, doxycycline-induced
T1 sequence (Q7Z2W7 whole entry): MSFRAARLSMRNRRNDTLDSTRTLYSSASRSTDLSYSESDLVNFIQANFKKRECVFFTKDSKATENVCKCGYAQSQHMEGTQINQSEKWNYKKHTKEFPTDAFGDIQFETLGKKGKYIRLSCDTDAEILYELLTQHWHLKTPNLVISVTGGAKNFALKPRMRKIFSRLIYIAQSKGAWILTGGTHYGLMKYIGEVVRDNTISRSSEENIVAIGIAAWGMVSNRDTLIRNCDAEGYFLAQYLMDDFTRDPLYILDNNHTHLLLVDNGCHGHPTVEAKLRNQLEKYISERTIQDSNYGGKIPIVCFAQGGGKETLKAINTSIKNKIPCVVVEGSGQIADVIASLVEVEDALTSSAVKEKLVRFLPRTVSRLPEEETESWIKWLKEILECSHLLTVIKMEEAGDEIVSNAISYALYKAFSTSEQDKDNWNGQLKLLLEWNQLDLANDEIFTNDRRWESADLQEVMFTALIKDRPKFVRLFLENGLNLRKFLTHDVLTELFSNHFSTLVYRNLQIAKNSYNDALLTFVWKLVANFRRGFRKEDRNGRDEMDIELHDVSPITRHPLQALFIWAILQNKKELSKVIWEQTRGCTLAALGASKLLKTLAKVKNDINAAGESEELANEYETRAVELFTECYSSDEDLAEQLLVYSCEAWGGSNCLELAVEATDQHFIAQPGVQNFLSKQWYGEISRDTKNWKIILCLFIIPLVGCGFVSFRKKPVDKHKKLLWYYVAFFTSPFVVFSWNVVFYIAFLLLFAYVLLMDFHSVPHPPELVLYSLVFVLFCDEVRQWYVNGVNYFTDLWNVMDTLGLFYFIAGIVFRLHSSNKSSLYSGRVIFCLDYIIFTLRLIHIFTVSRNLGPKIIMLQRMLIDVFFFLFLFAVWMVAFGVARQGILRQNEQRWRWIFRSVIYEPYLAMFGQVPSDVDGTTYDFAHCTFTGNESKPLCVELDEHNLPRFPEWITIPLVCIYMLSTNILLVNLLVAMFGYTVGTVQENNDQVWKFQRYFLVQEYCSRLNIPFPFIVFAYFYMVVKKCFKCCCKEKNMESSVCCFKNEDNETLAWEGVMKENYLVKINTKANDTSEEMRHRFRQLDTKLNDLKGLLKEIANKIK
Description: Evaluation of human TRPM8 activity (cool-feeling intensity), calcium fluorescence in stable expression cells. Type of data set: cell-based. Particulars: Fluo4-AM, 32° C., read-out: EC50 value in TRPM8 activation action. How it is done: It is common that a compound having a cooling effect such as menthol generally induces a cool-feeling by activating melastatin transient receptor potential channel 8 (TRPM8) as a cold stimulation receptor (for example, see J. Neurobiol. (2004), Vol. 61, PP. 3-12). Therefore, in order to evaluate the cool-feeling intensity, EC50 values of the exemplary compounds obtained in the Examples in TRPM8 activation actions were evaluated according to the following procedures.
The full-length human TRPM8 gene was amplified from plasmid RC220615 (manufactured by Origene) using a PCR method. The obtained PCR product was subcloned into pcDNA5/FRT/TO (manufactured by Thermo Fisher Scientific K.K.), and then it was introduced into Flp-In293293 cells (manufactured by Thermo Fisher Scientific K.K.) by using a Flp-InT-REx system (manufactured by Thermo Fisher Scientific K.K.), so that a human TRPM8 stable expression cell line was prepared.
The cultured human TRPM8 stable expression cells were seeded at a ratio of 50,000 cells/well to a poly-D-lysine-coated 96-well microplate (manufactured by Corning Incorporated), 1 μg/mL of doxycycline (manufactured by Takara Bio Inc.) was added thereto, and then the seeded cells were cultured at 37° C. for one night, so that the expression of the human TRPM8 was induced.
The culture solution was replaced with a buffer solution, and then, a fluorescent calcium indicator (Fluo4-AM: manufactured by Dojindo) was added thereto, the cells were incubated at 37° C. for 30 minutes, and they were transferred to a fluorescent microplate reader (FlexStation3: Molecular Devices, LLC.). Exemplary compounds were added in a final concentration range of 0.1 μM to 1000 μM, and the changes in fluorescence having a wavelength of 525 nm when excited at a wavelength of 485 nm were measured at a device temperature of 32° C., so as to calculate EC50 values.

The nature of data set [1]: Sensory evaluation of 30 ppm aqueous solution by three flavorists. Type of data set: in vivo, human. To be noted: for intensity of cool-feeling: mouth rinsed and spat out; for intensity of cool-feeling compared with comparative compounds: 30 ppm aqueous solutions. How it is done: The sensory evaluation was performed by comparing the exemplary compound (1-1) with the so far known comparative compounds 1 to 4. Comparative compounds 1, 3, and 4 were synthesized according to the method described in WO 2016/153011 A1, and comparative compound 2 was synthesized according to the method described in WO 2005/020897 A1. The exemplary compound (1-1) and comparative compounds 1 to 4 were separately prepared into a 30 ppm aqueous solution, and the aqueous solution was used to perform the evaluation.
The evaluation was performed by three flavorists. The aqueous solution was taken into the mouth and spat out after the mouth was rinsed, and intensity, persistence, and quality of a cool-feeling in the oral cavity were evaluated.
A 30 ppm aqueous solution of the exemplary compound (1-2) was prepared and used to perform the evaluation.
A 30 ppm aqueous solution of the exemplary compound (1-3) was prepared and used to perform the evaluation.
A 30 ppm aqueous solution of the exemplary compound (1-5) was prepared and used to perform the evaluation.

Broadly, the melting point is the temperature of the solid-liquid transition. As a reminder, the EC50 is the midpoint of the concentration-response curve.

As for `CC(CNC(=O)C1CC(C)(C)CCC1C(C)C)c1ccccc1` (stereo not shown) [Exemplary Compound 1-6, 2-isopropyl-5,5-dimethyl-N-(2-phenylpropyl) cyclohexane carboxamide], the melting point lay within 80 to 85 °C. As to `CC(C)C1CCC(C)(C)CC1C(=O)NC[C@@H](O)c1ccccc1` (stereo partly shown) [1-2], the EC50 on human TRPM8 is 24.1 nM. Turning to `COc1ccc(CCNC(=O)C2CC(C)(C)CCC2C(C)C)cc1OC` (stereo not shown) [1-12], on human TRPM8, the EC50 came to 403 nM. Compound `COc1ccc(CCNC(=O)C2CC(C)(C)CCC2C(C)C)cc1OC` (stereo not shown) [Exemplary Compound 1-12, N-(3,4-dimethoxyphenylethyl)-2-isopropyl-5,5-dimethyl cyclohexane carboxamide] showed a melting point of 85 to 89 °C. As to `CC(C)C1CCC(C)(C)CC1C(=O)NC[C@H](C)c1ccccc1` (stereo partly shown) [1-8], the EC50 at human TRPM8 turned out to be 610 nM.

Take `CC(C)C1CCC(C)(C)CC1C(=O)NCCc1ccc(O)c(O)c1` (stereo not shown) [1-11]: the EC50 at human TRPM8 came to 113 nM. With `COc1ccc(CCNC(=O)C2CC(C)(C)CCC2C(C)C)cc1` (stereo not shown) [Exemplary Compound 1-10, 2-isopropyl-N-(4-methoxyphenylethyl)-5,5-dimethyl cyclohexane carboxamide], the melting point fell in the range of 86 to 88 °C.

`CC(C)C1CCC(C)(C)CC1C(=O)NCCc1ccc(O)cc1` (stereo not shown) [Exemplary Compound 1-9, N-(4-hydroxyphenylethyl)-2-isopropyl-5,5-dimethyl cyclohexane carboxamide] had a melting point of 183 to 190 °C. As to `CC(CNC(=O)C1CC(C)(C)CCC1C(C)C)c1ccccc1` (stereo not shown) [1-6], on human TRPM8, the EC50 came out at 388 nM.

`CC(C)C1CCC(C)(C)CC1C(=O)NCC(=O)c1ccccc1` (stereo not shown) [Exemplary Compound 1-5, 2-isopropyl-5,5-dimethyl-N-(2-oxo-2-phenylethyl) cyclohexane carboxamide] returned a melting point of 85 to 88 °C. Also, in data set [1] (30 ppm aqueous solution), the “persistence: cool-feeling lasted for” value was not below 60 min, the “start of the cool-feeling” value was “gradually felt strongly” and the intensity of cool-feeling result is on record as “very strongly at the peak time”.

Consider `CC(C)C1CCC(C)(C)CC1C(=O)NCC(=O)c1ccccc1` (stereo not shown) [1-5], for which, on human TRPM8, the EC50 was determined as 149 nM. In the case of `CC(C)C1CCC(C)(C)CC1C(=O)NCC(O)c1ccccc1` (stereo not shown) [Exemplary Compound 1-1, N-(2-hydroxy-2-phenylethyl)-2-isopropyl-5,5-dimethyl cyclohexane carboxamide], in data set [1] (30 ppm aqueous solution), the “persistence: cool-feeling lasted for” value is not below 60 min, the “start of the cool-feeling” value is “clearly faster than the comparative compounds 1 to 4” and the intensity of cool-feeling result was “very strong”. Further, the “intensity of cool-feeling compared with comparative compounds” value in data set [1] is “clearly stronger than those of the comparative compounds 3 and 4”. `CC(C)C1CCC(C)(C)CC1C(=O)NCCc1ccc(O)cc1` (stereo not shown) [1-9]: at human TRPM8, the EC50 was 29.8 nM. The same measure, in the same setting: under `COc1ccc(CCNC(=O)C2CC(C)(C)CCC2C(C)C)cc1` (stereo not shown) [1-10] stands 158 nM; under `CC(C)C1CCC(C)(C)CC1C(=O)NC[C@@H](C)c1ccccc1` (stereo partly shown) [1-7], 555 nM. As for `CC(C)C1CCC(C)(C)CC1C(=O)NC[C@H](O)c1ccccc1` (stereo partly drawn) [Exemplary Compound 1-3, N—((R)-2-hydroxy-2-phenylethyl)-2-isopropyl-5,5-dimethyl cyclohexane carboxamide], in data set [1] (30 ppm aqueous solution), the “persistence: cool-feeling lasted for” value was not below 60 min, the “start of the cool-feeling” value was “strong cool-feeling was felt when the exemplary compound (1-3) was put in the mouth” and the intensity of cool-feeling result was “very strong”. Consider `CC(C)C1CCC(C)(C)CC1C(=O)NC[C@@H](O)c1ccccc1` (stereo partly drawn) [Exemplary Compound 1-2, N—((S)-2-hydroxy-2-phenylethyl)-2-isopropyl-5,5-dimethyl cyclohexane carboxamide], for which, in data set [1] (30 ppm aqueous solution), the “persistence: cool-feeling lasted for” value was not below 90 min, the “start of the cool-feeling” value was “strong cool-feeling was felt when the exemplary compound (1-2) was put in the mouth” and the intensity of cool-feeling result was “very strong”.

In the case of `CC(C)C1CCC(C)(C)CC1C(=O)NC[C@@H](C)c1ccccc1` (stereo partly drawn) [Exemplary Compound 1-7, 2-isopropyl-5,5-dimethyl-N—((S)-2-phenylpropyl) cyclohexane carboxamide], the melting point was in the range of 125 to 133 °C. With `CC(C)C1CCC(C)(C)CC1C(=O)NC[C@H](C)c1ccccc1` (stereo partly drawn) [Exemplary Compound 1-8, 2-isopropyl-5,5-dimethyl-N—((R)-2-phenylpropyl) cyclohexane carboxamide], the melting point was in the range of 127 to 134 °C. For the compound `CC(C)C1CCC(C)(C)CC1C(=O)NC[C@H](O)c1ccccc1` (stereo partly shown) [1-3], on human TRPM8, the EC50 came out at 73.6 nM.

In the case of `CC(C)C1CCC(C)(C)CC1C(=O)NCC(O)c1ccccc1` (stereo not shown) [1-1], the EC50 on human TRPM8 was 41 nM. `CC(C)C1CCC(C)(C)CC1C(=O)NCCc1ccccc1` (stereo not shown) [1-13]: on human TRPM8, the EC50 came out at 50.2 nM.

In the case of `CC(=O)OC(CNC(=O)C1CC(C)(C)CCC1C(C)C)c1ccccc1` (stereo not shown) [1-4], at human TRPM8, the EC50 is 541 nM. The compound `CC(C)C1CCC(C)(C)CC1C(=O)NCCc1ccccc1` (stereo not shown) [Exemplary Compound 1-13, 2-isopropyl-5,5-dimethyl-N-phenylethyl cyclohexane carboxamide] had a melting point of 90 to 93 °C.

As to `CC(C)[C@@H]1CC[C@@H](C)CC1C(=O)NCC(O)c1ccccc1` (stereo partly shown) [Comparative compound 2, reference compound], in data set [1] (30 ppm aqueous solution), the “persistence of cool-feeling” value is “persistent” and the intensity of cool-feeling result is on record as “very strong”. The “intensity of cool-feeling compared with comparative compounds” value in data set [1] was “same cooling intensity and persistence as those of the exemplary compound (1-1)”.
